Experimental data from ChEMBL document CHEMBL1201862, “PubChem BioAssay data set” (2004).
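Briefly, cells in 96-well plates were exposed to five compound concentrations for 48 h, and endpoints were estimated by linear interpolation. The concentration for 50% growth inhibition is given as GI50.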 Activity calls are given as the source filed them. No stated cut-off is given here; in the data, active = GI50 up to about 1.1 µM and inactive = higher.

Assays:
Test in all cases: NCI tumour cell line growth inhibition, 48 h
KM12 = system: KM12
SK-MEL-2 = system: SK-MEL-2
SK-MEL-28 = system: SK-MEL-28
TK-10 = system: TK-10
SNB-75 = system: SNB-75
UO-31 = system: UO-31
MOLT-4 = system: MOLT-4
SR = system: SR
IGROV-1 = system: IGROV-1
CCRF-CEM = system: CCRF-CEM
RXF 393 = system: RXF 393
SK-OV-3 = system: SK-OV-3
BT-549 = system: BT-549
Malme-3M = system: Malme-3M
NCI-H226 = system: NCI-H226
MDA-N = system: MDA-N
UACC-257 = system: UACC-257
COLO 205 = system: COLO 205
OVCAR-8 = system: OVCAR-8
NCI-H460 = system: NCI-H460
SK-MEL-5 = system: SK-MEL-5
PC-3 = system: PC-3
U-251 = system: U-251
SN12C = system: SN12C
OVCAR-5 = system: OVCAR-5
DU-145 = system: DU-145
LOX IMVI = system: LOX IMVI
MDA-MB-231 = system: MDA-MB-231
UACC-62 = system: UACC-62
MCF7 = system: MCF7
NCI-H522 = system: NCI-H522
HCT-116 = system: HCT-116
MDA-MB-435 = system: MDA-MB-435
M14 = system: M14
OVCAR-4 = system: OVCAR-4
EKVX = system: EKVX
HL-60 = system: HL-60
NCI/ADR-RES = system: NCI/ADR-RES
SF-539 = system: SF-539
ACHN = system: ACHN
NCI-H23 = system: NCI-H23
CAKI-1 = system: CAKI-1
HT-29 = system: HT-29
K562 = system: K562
A498 = system: A498
SF-268 = system: SF-268
HOP-62 = system: HOP-62
SF-295 = system: SF-295
786-0 = system: 786-0
SNB-19 = system: SNB-19
RPMI-8226 = system: RPMI-8226
HCT-15 = system: HCT-15
OVCAR-3 = system: OVCAR-3
SW-620 = system: SW-620
A549 = system: A549
T47D = system: T47D
HOP-92 = system: HOP-92
Hs-578T = system: Hs-578T

With `C/C(=N\Nc1ccc2ccccc2n1)c1ccccc1O` as the compound, how does the GI50 (KM12) read?
The GI50 was > 100 µM (inactive).

What about the GI50 (SK-MEL-2) of the same compound?
Its GI50 is > 100 µM (inactive).

What about the GI50 (SK-MEL-28) of the same compound?
The GI50 was > 100 µM (inactive).

And the GI50 (TK-10)?
Its GI50 is > 86.3 µM (inactive).

And the GI50 (SNB-75)?
Its GI50 is < 0.01 µM (active).

What about the GI50 (UO-31) of the same compound?
Its GI50 is 70.8 µM (inactive).

What about the GI50 (MOLT-4) of the same compound?
The GI50 was 4.69 µM (inactive).

And the GI50 (SR)?
Its GI50 is 3.15 µM (inactive).

What about the GI50 (IGROV-1) of the same compound?
Its GI50 is > 100 µM (inactive).

And the GI50 (CCRF-CEM)?
Its GI50 is 3.33 µM (inactive).

What about the GI50 (RXF 393) of the same compound?
The GI50 was > 72.6 µM (inactive).

And the GI50 (SK-OV-3)?
The GI50 was 29.8 µM (inactive).

What about the GI50 (BT-549) of the same compound?
The GI50 was > 100 µM (inactive).

What about the GI50 (Malme-3M) of the same compound?
Its GI50 is > 100 µM (inactive).

And the GI50 (NCI-H226)?
Its GI50 is > 90.2 µM (inactive).

What about the GI50 (MDA-N) of the same compound?
The GI50 was > 100 µM (inactive).

And the GI50 (UACC-257)?
Its GI50 is > 100 µM (inactive).

What about the GI50 (COLO 205) of the same compound?
Its GI50 is > 100 µM (inactive).

And the GI50 (OVCAR-8)?
The GI50 was 56.1 µM (inactive).

What about the GI50 (NCI-H460) of the same compound?
The GI50 was > 92.5 µM (inactive).

And the GI50 (SK-MEL-5)?
The GI50 was > 100 µM (inactive).

What about the GI50 (PC-3) of the same compound?
The GI50 was > 100 µM (inactive).

And the GI50 (U-251)?
Its GI50 is 54.1 µM (inactive).

What about the GI50 (SN12C) of the same compound?
The GI50 was > 100 µM (inactive).

What about the GI50 (OVCAR-5) of the same compound?
The GI50 was > 100 µM (inactive).

And the GI50 (DU-145)?
Its GI50 is > 100 µM (inactive).

What about the GI50 (LOX IMVI) of the same compound?
The GI50 was > 100 µM (inactive).

What about the GI50 (MDA-MB-231) of the same compound?
Its GI50 is > 83 µM (inactive).

And the GI50 (UACC-62)?
Its GI50 is > 100 µM (inactive).

And the GI50 (MCF7)?
The GI50 was 5.31 µM (inactive).

And the GI50 (NCI-H522)?
Its GI50 is > 100 µM (inactive).

What about the GI50 (HCT-116) of the same compound?
Its GI50 is > 100 µM (inactive).

What about the GI50 (MDA-MB-435) of the same compound?
Its GI50 is > 100 µM (inactive).

What about the GI50 (M14) of the same compound?
Its GI50 is > 100 µM (inactive).

And the GI50 (OVCAR-4)?
The GI50 was > 100 µM (inactive).

What about the GI50 (EKVX) of the same compound?
The GI50 was 19.6 µM (inactive).

And the GI50 (HL-60)?
Its GI50 is > 100 µM (inactive).

What about the GI50 (NCI/ADR-RES) of the same compound?
Its GI50 is > 37.5 µM (inactive).

And the GI50 (SF-539)?
Its GI50 is > 68.9 µM (inactive).

And the GI50 (ACHN)?
The GI50 was > 100 µM (inactive).

And the GI50 (NCI-H23)?
The GI50 was > 100 µM (inactive).

And the GI50 (CAKI-1)?
Its GI50 is > 100 µM (inactive).

What about the GI50 (HT-29) of the same compound?
The GI50 was 8.15 µM (inactive).

What about the GI50 (K562) of the same compound?
The GI50 was 7.38 µM (inactive).

And the GI50 (A498)?
Its GI50 is > 100 µM (inactive).

And the GI50 (SF-268)?
The GI50 was 24.5 µM (inactive).

What about the GI50 (HOP-62) of the same compound?
Its GI50 is 14 µM (inactive).

And the GI50 (SF-295)?
Its GI50 is 8.07 µM (inactive).

And the GI50 (786-0)?
The GI50 was > 37.3 µM (inactive).

What about the GI50 (SNB-19) of the same compound?
The GI50 was > 63.8 µM (inactive).

And the GI50 (RPMI-8226)?
Its GI50 is 7.23 µM (inactive).

What about the GI50 (HCT-15) of the same compound?
Its GI50 is 11.4 µM.

What about the GI50 (OVCAR-3) of the same compound?
Its GI50 is 2.13 µM (inactive).

What about the GI50 (SW-620) of the same compound?
Its GI50 is > 27.6 µM (inactive).

And the GI50 (A549)?
The GI50 was > 100 µM (inactive).

What about the GI50 (T47D) of the same compound?
Its GI50 is 3.96 µM (inactive).

And the GI50 (HOP-92)?
The GI50 was > 100 µM (inactive).

What about the GI50 (Hs-578T) of the same compound?
The GI50 was > 83.2 µM (inactive).

What does the source list for `Cc1ccc(NC(=O)c2ccccc2C(=O)O)cc1C`?
GI50 (KM12): > 100 µM (inactive); GI50 (SK-MEL-2): > 100 µM (inactive); GI50 (SK-MEL-28): > 100 µM (inactive); GI50 (TK-10): > 100 µM (inactive); GI50 (SNB-75): > 100 µM (inactive); GI50 (MOLT-4): > 100 µM (inactive); GI50 (SR): > 100 µM (inactive); GI50 (IGROV-1): > 100 µM (inactive); GI50 (RXF 393): > 100 µM (inactive); GI50 (SK-OV-3): > 100 µM (inactive); GI50 (BT-549): > 100 µM (inactive); GI50 (Malme-3M): > 100 µM (inactive); GI50 (NCI-H226): > 100 µM (inactive); GI50 (MDA-N): > 100 µM (inactive); GI50 (UACC-257): > 100 µM (inactive); GI50 (COLO 205): > 100 µM (inactive); GI50 (OVCAR-8): > 100 µM (inactive); GI50 (NCI-H460): > 100 µM (inactive); GI50 (SK-MEL-5): > 100 µM (inactive); GI50 (PC-3): > 100 µM (inactive); GI50 (U-251): > 100 µM (inactive); GI50 (SN12C): > 100 µM (inactive); GI50 (OVCAR-5): > 100 µM (inactive); GI50 (DU-145): > 100 µM (inactive); GI50 (LOX IMVI): > 100 µM (inactive); GI50 (MDA-MB-231): > 100 µM (inactive); GI50 (UACC-62): > 100 µM (inactive); GI50 (MCF7): > 100 µM (inactive); GI50 (NCI-H522): > 100 µM (inactive); GI50 (HCT-116): > 100 µM (inactive); GI50 (MDA-MB-435): > 100 µM (inactive); GI50 (M14): > 100 µM (inactive); GI50 (OVCAR-4): > 100 µM (inactive); GI50 (EKVX): > 100 µM (inactive); GI50 (NCI/ADR-RES): > 100 µM (inactive); GI50 (SF-539): > 100 µM (inactive); GI50 (ACHN): > 100 µM (inactive); GI50 (NCI-H23): > 100 µM (inactive); GI50 (CAKI-1): > 100 µM (inactive); GI50 (HT-29): > 100 µM (inactive); GI50 (K562): > 100 µM (inactive); GI50 (A498): > 100 µM (inactive); GI50 (SF-268): > 100 µM (inactive); GI50 (HOP-62): > 100 µM (inactive); GI50 (SF-295): > 100 µM (inactive); GI50 (786-0): > 100 µM (inactive); GI50 (SNB-19): > 100 µM (inactive); GI50 (RPMI-8226): > 100 µM (inactive); GI50 (HCT-15): > 100 µM; GI50 (OVCAR-3): > 100 µM (inactive); GI50 (SW-620): > 100 µM (inactive); GI50 (A549): > 100 µM (inactive); GI50 (T47D): > 100 µM (inactive); GI50 (HOP-92): > 100 µM (inactive); GI50 (Hs-578T): > 100 µM (inactive)
